{"source": "patent US20100115832A1", "about": "“MOISTURIZING AGENT WITH NUTRIENTS” (priority 2006, published 2010)", "details": "research at the DRiWATER lab", "data": [{"molecule": "CC(=O)O", "note": "[acetic acid]", "values": [{"measurement": "effect on gel degradation in soil", "value": "will slow gel degradation in soil"}]}]}
